From article PMC12488629, “Insecticidal activity of monoamide compounds from Humulus scandens against Spodoptera frugiperda” (Frontiers in Plant Science, 2025) come the findings set out here.

Assay [1] has as its system 4th instar S. frugiperda larvae. The assay can be described thus: Contact toxicity of compounds, immersion method. The assay is classed as in vivo, Spodoptera frugiperda. Conditions: for Insecticidal activity, contact toxicity (in words): 200 µg/mL; for LC50: Spodoptera frugiperda, Poisoning activity (contact toxicity, immersion), 72 hours, 4th instar larvae. On the procedure:
The contact toxicity of the compounds against S. frugiperda was determined via the immersion method ([Li et al., 2023]). The compounds were prepared in solutions with a concentration of 200 μg/mL using acetone as the solvent. Uniformly sized 4th instar S. frugiperda larvae were selected and immersed in the solutions for 3–4 seconds. Each treatment included 10 Petri dishes, with one larva per dish, and the experiment was repeated three times. Acetone was used as the solvent control, and a blank control was also used. The number of dead insects was recorded at 24, 48, and 72 hours, and the corrected mortality rate was calculated.
(§1) Mortality(%)=(Mortality of treatment group-Mortality of control group)/(1-Mortality of control group)×100%
The compound concentrations were prepared as 50, 100, 200, 400, and 800 μg/mL, with the remaining procedures following those in section 2.6.2. The number of dead insects was recorded after 72 hours. The experimental data was processed using Microsoft Excel and SPSS 20.0 software, converting the inhibition rates into corresponding probability values to obtain the toxicity regression equation and calculate the LC50 value.

The subject of assay [2] is 4th instar S. frugiperda larva. The assay can be described thus: Dietary toxicity of compounds, artificial feed film method. The format is in vivo, Spodoptera frugiperda. Conditions: for Insecticidal activity, dietary poisoning (in words): 200 µg/mL; for LC50: Spodoptera frugiperda, feed or water, Gastrotoxic activity (dietary toxicity), 72 hours, 4th instar larvae. How it is done: The dietary toxicity of the compounds against S. frugiperda was determined via the artificial feed film method ([Lu, 2022]). Take 1g of artificial feed and place it in a petri dish, then add 0.1 ml of the liquid medicine (acetone as the solvent and concentration of 200 μg/mL for all compounds) was added to form a uniform film on the surface of the feed. After allowing the feed to dry in a shaded area, one uniformly sized 4th instar S. frugiperda larva was introduced into each dish. Each treatment included 10 Petri dishes, and the experiment was repeated twice. Acetone was used as the solvent control, and a blank control was also used. Mortality was recorded at 24, 48, and 72 hours, and the corrected mortality rate was calculated.
as §1
The compound concentrations used were 50, 100, 200, 400, and 800 μg/mL. The remaining procedures were the same as those described in section 2.6.1. After 72 hours, the number of dead insects was recorded. The experimental data were processed using Microsoft Excel and SPSS 20.0 software, with the inhibition rates converted into corresponding probability values. A toxicity regression equation was derived, and the LC50 value was calculated.

For assay [3], the system named is Acetylcholinesterase (AchE). Kind of assay: AchE activity in living S. frugiperda after immersion treatment. Conditions: treatment at LC50 and double the LC50, immersion. The assay is classed as in vivo, Spodoptera frugiperda. On the procedure: The compounds were prepared in solutions at the LC50 and double the LC50, and 4th-instar S. frugiperda larvae were treated using the immersion method. Ten larvae were treated per concentration, with five replicates, and acetone was used as the solvent control. The Acetylcholinesterase (AchE) activity was measured following the operating procedures of the AchE assay kit (Shenggong Biotech Co., Shanghai, China.).

For another assay, the target named is AchE from S. frugiperda (Spodoptera frugiperda, UniProt A0A9R0CUI4). The assay can be described thus: Kinetic study of compound inhibition on AchE. The assay is classed as biochemical. Particulars: for Inhibition type on AchE: Lineweaver-Burk double reciprocal plots; for Reversibility of AchE inhibition: reaction rate vs enzyme concentration. How it is done: Subsequently, 1.5 mM acetylcholine (ACh) (50 µL) and 0.3 mM DTNB (50 µL) were added, and the time was immediately recorded. The OD values were accurately measured after 60 seconds at 412 nm using a microplate reader, and the reaction rate (ΔA/min) was calculated based on the change in OD value per minute.
Chain of AchE from S. frugiperda (A0A9R0CUI4 18-694): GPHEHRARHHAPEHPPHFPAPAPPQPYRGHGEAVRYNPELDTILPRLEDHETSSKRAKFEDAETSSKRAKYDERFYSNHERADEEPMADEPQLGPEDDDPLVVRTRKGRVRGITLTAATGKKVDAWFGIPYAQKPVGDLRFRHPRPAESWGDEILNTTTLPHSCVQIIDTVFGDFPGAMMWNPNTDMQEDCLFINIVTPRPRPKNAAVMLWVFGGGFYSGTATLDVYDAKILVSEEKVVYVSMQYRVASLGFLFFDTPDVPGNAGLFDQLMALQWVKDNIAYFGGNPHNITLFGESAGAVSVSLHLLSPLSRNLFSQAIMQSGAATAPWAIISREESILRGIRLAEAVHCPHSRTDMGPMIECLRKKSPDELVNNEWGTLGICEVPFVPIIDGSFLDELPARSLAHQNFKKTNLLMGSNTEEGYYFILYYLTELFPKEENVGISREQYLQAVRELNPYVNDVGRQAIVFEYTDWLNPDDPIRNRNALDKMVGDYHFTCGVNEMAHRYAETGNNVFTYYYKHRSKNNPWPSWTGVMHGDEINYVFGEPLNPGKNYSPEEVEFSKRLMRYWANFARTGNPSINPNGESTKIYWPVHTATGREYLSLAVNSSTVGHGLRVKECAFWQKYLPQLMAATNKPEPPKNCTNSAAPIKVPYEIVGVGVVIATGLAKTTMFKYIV
The OD values were accurately measured after 60 seconds at 412 nm using a microplate reader, and the reaction rate (ΔA/min) was calculated based on the change in OD value per minute. […] The inhibition constant (Ki) of the compound was calculated by plotting the Dixon plot.

≈ marks a conversion by molar mass, not a printed value.

A word on the LC50: it is the concentration that kills 50% of the test population. Low values mean greater toxicity, high ones lower toxicity. With `O=C(/C=C/c1ccc(O)cc1)NCCc1ccc(O)cc1` [Compound 1, N-p-coumaroyl tyramine], in assay [1], the “Insecticidal activity, contact toxicity (in words)” value is reported as “good insecticidal activity” and the LC50 came to 93 µg/mL (≈ 328 µM). Moreover, in assay [2], the “Insecticidal activity, dietary poisoning (in words)” value is given as “good insecticidal activity” and the LC50 was 305 µg/mL (≈ 1080 µM). The “AchE activity of the test insects” value in assay [3] was “significantly decreased”. Further, on AchE from S. frugiperda, the “Inhibition type on AchE” value is recorded as “competitive inhibitors” and the “Reversibility of AchE inhibition” value is “reversible inhibitors”.

With `COc1cc(/C=C/C(=O)NCCc2ccc(O)cc2)ccc1O` [Compound 2, N-trans-feruloyl tyramine], in assay [1], the “Insecticidal activity, contact toxicity (in words)” value was “good insecticidal activity” and the LC50 came to 48 µg/mL (≈ 153 µM). In addition, in assay [2], the “Insecticidal activity, dietary poisoning (in words)” value is listed as “good insecticidal activity” and the LC50 was determined as 89.9 µg/mL (≈ 287 µM). The “AchE activity of the test insects” value in assay [3] was “significantly decreased”. In addition, at AchE from S. frugiperda, the “Inhibition type on AchE” value is on record as “competitive inhibitors” and the “Reversibility of AchE inhibition” value is listed as “reversible inhibitors”.
